Holding throughout (assay type): cell-based
Test [1] relates to DU145 cells. Nature of the test: Western blot of EMT, CSC markers and AR in DU145. Particulars: DU145, 20 μM, 48 hours. From the text:
Due to our interest in CRPC the cell lines DU145 and PC3 were chosen due to their chemoresistance to high concentrations of enzalutamide, androgen independence, and relatively high expression of FOXC2 (FIGS. 30A&B). First, the effect of MC-1-F2 on the inhibition of EMT markers was examined (FIGS. 26A-G). […] The variability in E-cadherin expression can be due to a different mode of action the ligand MC-1-F2 is having on prostate cancer cells, possibly a time dependent effect of the ligand.
After confirmation of the ligand's ability to block EMT, the ligand's ability to decrease cancer stem cell (CSC) characteristics was determined. CRPC is plagued by a higher ratio of CSC to normal prostate cells, leading to the acquired characteristics of higher proliferative and self-renewal capabilities (Yun et al., 2016). CSC markers, Nanog, C-myc and KLF4, were examined.
50 μg of total protein per sample was incubated with 4× loading buffer at 100° C. for 5 min. Protein samples were then loaded into a polyacrylamide gel and subjected to SDS-PAGE. Resolved proteins were then transferred by a wet transfer method to a PVDF membrane at 100 V for 1 hour using a BioRad Mini Trans-Blot Electrophoresis Transfer Cell. Upon the completion of wet transfer, the membrane was then blocked with 5% (w/v) fat-free milk in 1× Tris-buffered saline/0.1% (v/v) Tween-20 (TBS-T) for at least 1 hour. Then incubated with the respective primary antibodies diluted in 5% BSA in 1×TBST at 4° C. overnight. The following day exposed to 1:1000 dilution of anti-mouse […] secondary antibodies in 5% (w/v) fat-free milk in 1×TBS-T for 1 hour at room temperature. The probed proteins were then detected for chemiluminescent signal using SuperSignal Chemiluminescent Substrate (PIERCE). Pierce antibodies: B-actin, and all other antibodies used are from cell signaling.

The next test has as its system PC3 cells. Nature of the test: Transwell invasion assay, PC3. Conditions: PC3, 24 hours, vs DMSO. The procedure:
(§1) Following determination of both inhibition of EMT and CSC properties, the inhibition of the migratory and invasive capabilities of both cell lines following MC-1-F2 treatment was examined through the use of a transwell invasion assay.
(§2) Matrigel invasion chambers (Corning) were allowed to come to room temperature and allowed to rehydrate for 2 hours in a cell incubator. Cells were treated 24 hours prior to assay and starved in 2% FBS in DMEM for 2 hours prior to assay. A cell suspension containing 5×10^4 cells/mL was prepared. Chemoattractant (DMEM+10% FBS) was added to the bottom of the wells. Using forceps, the inserts were transferred inside the wells and 0.5 mL of cell suspension was immediately added. The chambers were incubated for 22 hours in a humidified tissue culture incubator. After the 22 hours, the non-invading cells were removed by scrubbing the surface of the membrane. The cells were fixated with 4% formaldehyde solution for 2 minutes at room temperature. Followed by permeabilization of the membrane with 100% MeOH for 20 minutes at room temperature. The cells were stained with 0.5% crystal violet solution and several images of the wells were then taken and total number of cells counted for analysis.

In test [2] the test system is DU145 cells. Nature of the test: Transwell invasion assay, DU145. Particulars: DU145, 24 hours, vs DMSO. As for the experimental part:
as §1, §2

The subject of the next test is LNCaP cells. Nature of the test: Transwell invasion assay, LNCaP. Particulars: androgen-dependent, low FOXC2 expression, 20 μM, 24 hours. The procedure: as §1, §2

SMILES strings stand for the structures.

As to `N=C(N)NCCCCNc1nc(Nc2ccc(Oc3ccccc3)cc2)nc(N2CCN(c3nc(N)nc(Nc4ccc(N5CCOCC5)cc4)n3)CC2)n1` [MC-1-F2], in the test with DU145 cells [1], the AR expression result is “no effect on AR expression”; the “CSC markers Nanog, C-myc and KLF4” value was “significant decreases”; the E-cadherin expression levels result is reported as “recovery of E-cadherin”; the “EMT markers ZEB1, Vimentin, N-cadherin and Slug” value is “inhibit various EMT markers”. In addition, in the test with DU145 cells [1], the “epithelial marker ZO-1 expression” value is listed as “recovery of the epithelial marker ZO-1”. The “invasiveness (transwell invasion)” value in the test with PC3 cells was “remarkable inhibition in invasiveness”. The “invasiveness (transwell invasion)” value in the test on DU145 cells [2] is “remarkable inhibition in invasiveness”. Moreover, the “number of invasive cells (transwell invasion)” value in the test on LNCaP cells is given as “saw to change in the number of invasive cells”.

Source of the values: patent US10814010B2, “FOXC2 inhibitor and methods of use thereof” (The Board of Regents of The University of Texas System, priority 2018, dated 2020).
